Test results published in ChEMBL document CHEMBL5380869, “Discovery of an Oral, Beyond-Rule-of-Five Mcl-1 Protein-Protein Interaction Modulator with the Potential of Treating Hematological Malignancies” (J Med Chem, 2023).
Converted amounts (≈) assume the structure as drawn.

Legend:
[1] = Thermodynamic (equilibrium) solubility of the compound measured after 3 days agitation in pH 7 buffer by LC-MS/MS analysis; assay type: physicochemical; conditions: time 3 day, read-out: Therm_solubility
[2] = Lipophilicity, CHI logD of compound at pH 7.4 by UPLC-TOF analysis; assay type: physicochemical; conditions: buffer
[3] = Cardiotoxicity risk in human iPSC-CM assessed as calcium transients at 10 uM by CTCM assay; assay type: toxicity, cell-based
[4] = Intrinsic clearance in human liver microsomes measured upto 60 mins by LC-MS/MS analysis; assay type: ADME, Microsome; conditions: read-out: CLH
[5] = Intrinsic clearance in mouse liver microsomes measured upto 60 mins by LC-MS/MS analysis; assay type: ADME, Microsome; conditions: read-out: CLH
MOLP-8 = test: Induction apoptosis in human MOLP8 cells assessed as cell killing measured after 2 hrs by Caspase-Glo 3/7 Assay; assay type: functional, cell-based; conditions: MOLP-8, 2 h
[6] = Cardiotoxicity risk in human iPSC-CM assessed as calcium transients at 3 uM by CTCM assay; assay type: toxicity, cell-based
[7] = Cardiotoxicity risk in human iPSC-CM assessed as calcium transients at 1 uM by CTCM assay; assay type: toxicity, cell-based
[8] = Inhibition of terbium-labelled Mcl-1 (unknown origin)/Bim BH3 peptide (H3N-(C/Cy5Mal)-WIAQELRRIGDEFN-OH) (unknown origin) interaction assessed as displacement of Cy5-labeled Bim BH3 peptide by TR-HTRF assay
[9] = Thermodynamic (equilibrium) solubility of the compound measured after 3 days agitation in pH 2 buffer by LC-MS/MS analysis; assay type: physicochemical; conditions: time 3 day, read-out: Therm_solubility
[10] = Lipophilicity, CHI logD of compound at pH 2.6 by UPLC-TOF analysis; assay type: physicochemical; conditions: buffer
[11] = Lipophilicity, CHI logP of compound at pH 7.4 by UPLC-TOF analysis; assay type: physicochemical; conditions: buffer, read-out: logP

| Compound | solubility thermodynamic at 72 h [1] | chromatographic logD [2] | Activity [3] | microsomal CLint [4] | microsomal CLint [5] | AC50 (MOLP-8) | Activity [6] | Activity [7] | Ki [8] | solubility thermodynamic at 72 h [9] | chromatographic logD [10] | chromatographic logD [11] |
| --- | --- | --- | --- | --- | --- | --- | --- | --- | --- | --- | --- | --- |
| C[C@@H]1[C@@H](C)C/C=C(\F)[C@H](OCCN2CCOCC2)[C@@H]2OCC[C@H]2CN2C[C@@]3(CCCc4cc(Cl)ccc43)COc3ccc(cc32)C(=O)NS1(=O)=O | 1.2 µM (≈ 0.896 µg/mL) | 2.7 | Non-Toxic | 62 µL/min/mg | 34 µL/min/mg | 314 nM | Non-Toxic | Non-Toxic | 0.19 nM | 539 µM (≈ 402 µg/mL) | 2.5 | – |
| COC[C@H]1/C(C)=C/C[C@H](C)[C@@H](C)S(=O)(=O)NC(=O)c2ccc3c(c2)N(C[C@@H]2CCO[C@H]21)C[C@@]1(CCCc2cc(Cl)ccc21)CO3 | < 0.1 µM | 3.7 | – | < 7.7 µL/min/mg | 18 µL/min/mg | 1820 nM | – | – | 0.67 nM | < 0.1 µM | – | – |
| COc1nn(C)cc1C(=O)N[S@]1(=O)=NC(=O)c2ccc3c(c2)N(C[C@@H]2CCO[C@H]2[C@H](OC)/C(F)=C/C[C@H](C)C1)C[C@@]1(CCCc2cc(Cl)ccc21)CO3 | 0.6 µM (≈ 0.462 µg/mL) | 3.1 | Non-Toxic | < 7.7 µL/min/mg | 16 µL/min/mg | 486 nM | Non-Toxic | Non-Toxic | 0.025 nM | < 0.1 µM | – | – |
| COc1nn(C)cc1C(=O)N[S@@]1(=O)=NC(=O)c2ccc3c(c2)N(C[C@@H]2CCO[C@H]2[C@H](OC)/C(F)=C/C[C@H](C)C1)C[C@@]1(CCCc2cc(Cl)ccc21)CO3 | 188 µM (≈ 145 µg/mL) | 2.9 | – | < 7.7 µL/min/mg | < 7.7 µL/min/mg | > 5000 nM | Non-Toxic | Non-Toxic | 5.1 nM | 0.2 µM (≈ 0.154 µg/mL) | – | – |
| C[C@@H]1[C@@H](C)C/C=C(\F)[C@@](O)(CC#N)[C@@H]2OCC[C@H]2CN2C[C@@]3(CCCc4cc(Cl)ccc43)COc3ccc(cc32)C(=O)NS1(=O)=O | 0.3 µM (≈ 0.202 µg/mL) | 3.1 | – | < 7.7 µL/min/mg | < 7.7 µL/min/mg | > 5000 nM | – | – | 2.36 nM | < 0.5 µM | – | – |
| CO[C@H]1/C(F)=C/C[C@H](C)[C@@H](C)S(=O)(=O)NC(=O)c2cnc3c(n2)N(C[C@@H]2CCO[C@H]21)C[C@@]1(CCCc2cc(Cl)ccc21)CO3 | 143 µM (≈ 92.8 µg/mL) | 2.8 | – | 98 µL/min/mg | < 7.7 µL/min/mg | 1220 nM | – | – | 5.29 nM | < 0.1 µM | – | – |
| COc1nn(C)cc1C(=O)N[S@]1(=O)=NC(=O)c2ccc3c(c2)N(C[C@@H]2CCO[C@H]2[C@@](CN2CCN4CCOC[C@@H]4C2)(OC)/C(F)=C/C[C@H](C)C1)C[C@@]1(CCCc2cc(Cl)ccc21)CO3 | 518 µM (≈ 479 µg/mL) | 3 | – | < 7.7 µL/min/mg | < 7.7 µL/min/mg | 424 nM | Non-Toxic | Non-Toxic | 0.048 nM | 544 µM (≈ 503 µg/mL) | – | – |
| COc1nn(C)cc1C(=O)N[S@]1(=O)=NC(=O)c2ccc3c(c2)N(C[C@@H]2CCO[C@H]2[C@@H](OC)/C(F)=C/C[C@H](C)C1)C[C@@]1(CCCc2cc(Cl)ccc21)CO3 | 202 µM (≈ 156 µg/mL) | 3 | – | 16 µL/min/mg | 9.3 µL/min/mg | 2420 nM | Non-Toxic | Non-Toxic | 0.25 nM | < 0.1 µM | – | – |
| C[C@@H]1[C@@H](C)C/C=C(\F)[C@@](O)(CC(=O)N(C)C)[C@@H]2OCC[C@H]2CN2C[C@@]3(CCCc4cc(Cl)ccc43)COc3ccc(cc32)C(=O)NS1(=O)=O | < 0.1 µM | 3.6 | – | < 7.7 µL/min/mg | < 7.7 µL/min/mg | 436 nM | Non-Toxic | Non-Toxic | 0.18 nM | < 0.1 µM | – | – |
| C/C1=C\C[C@H](C)[C@@H](C)S(=O)(=O)NC(=O)c2ccc3c(c2)N(C[C@@H]2CCO[C@H]2[C@H]1CO)C[C@@]1(CCCc2cc(Cl)ccc21)CO3 | < 0.1 µM | 2.8 | – | < 7.7 µL/min/mg | 27 µL/min/mg | 752 nM | – | – | 0.52 nM | < 0.1 µM | – | – |
| CO[C@@]1(CN2CCN3CCCC[C@@H]3C2)/C(F)=C/C[C@H](C)[C@@H](C)S(=O)(=O)NC(=O)c2ccc3c(c2)N(C[C@@H]2CCO[C@H]21)C[C@@]1(CCCc2cc(Cl)ccc21)CO3 | 102 µM (≈ 81.5 µg/mL) | – | – | < 7.7 µL/min/mg | < 7.7 µL/min/mg | 1860 nM | – | – | 0.15 nM | 40 µM (≈ 32 µg/mL) | 2.5 | 3 |
| COc1nn(C)cc1C(=O)N[S@@]1(=O)=NC(=O)c2ccc3c(c2)N(C[C@@H]2CCO[C@H]2[C@@H](OC)/C=C/C[C@H](C)C1)C[C@@]1(CCCc2cc(Cl)ccc21)CO3 | 172 µM (≈ 129 µg/mL) | 2.9 | Non-Toxic | < 7.7 µL/min/mg | < 7.7 µL/min/mg | 76.1 nM | Non-Toxic | Non-Toxic | 0.023 nM | 0.27 µM (≈ 0.203 µg/mL) | – | – |
| COc1nn(C)cc1C(=O)N[S@]1(=O)=NC(=O)c2ccc3c(c2)N(C[C@@H]2CCO[C@H]2[C@](CN2CCN4CCOC[C@@H]4C2)(OC)/C(F)=C/C[C@H](C)C1)C[C@@]1(CCCc2cc(Cl)ccc21)CO3 | 25 µM (≈ 23.1 µg/mL) | 3 | Non-Toxic | < 7.7 µL/min/mg | < 7.7 µL/min/mg | 702 nM | Non-Toxic | Non-Toxic | 0.17 nM | 480 µM (≈ 444 µg/mL) | – | – |
| C[C@@H]1[C@@H](C)C/C=C/[C@H](OCCN2CCOCC2)[C@@H]2OCC[C@H]2CN2C[C@@]3(CCCc4cc(Cl)ccc43)COc3ccc(cc32)C(=O)NS1(=O)=O | 0.4 µM (≈ 0.291 µg/mL) | 2.7 | Non-Toxic | 34 µL/min/mg | 14 µL/min/mg | 616 nM | Non-Toxic | Non-Toxic | 0.23 nM | 521 µM (≈ 379 µg/mL) | 2.3 | – |
| CO[C@@H]1/C(F)=C/C[C@H](C)[C@@H](C)S(=O)(=O)NC(=O)c2ccc3c(c2)N(C[C@@H]2CCO[C@H]21)C[C@@]1(CCCc2cc(Cl)ccc21)CO3 | 11.2 µM (≈ 7.25 µg/mL) | 3 | – | < 7.7 µL/min/mg | 21 µL/min/mg | 1120 nM | – | – | 1.13 nM | < 0.5 µM | – | – |
| C[C@@H]1[C@@H](C)C/C=C/[C@H](O)[C@@H]2OCC[C@H]2CN2C[C@@]3(CCCc4cc(Cl)ccc43)COc3ccc(cc32)C(=O)NS1(=O)=O | 53 µM (≈ 32.6 µg/mL) | 2.6 | – | 16 µL/min/mg | 28 µL/min/mg | 752 nM | – | – | 0.72 nM | < 0.1 µM | – | – |
